Converted amounts (≈) assume the structure as drawn. Read-outs that look alike come from different tables or passages of the source.
Key:
F+ or F− cells = test: 24 hr. MIC bounds (turbid/clear wells); format: cell-based, E. coli; details: 8x serial dilutions, bounds identical for F+ or F− cells; for MIC: Escherichia coli
transconjugants = test: microbe, parasite or virus in culture; format: cell-based, E. coli; details: for Selectivities by EC50, Donors: listed as vs. transconjugants relative to donors
Excerpt: (§1) A 96-well fluorescence-based assay using oxygen biosensor plates (Becton Dickinson, Franklin Lakes, N.J., U.S.A.) was employed to monitor bacterial cell survival. FIG. 7 schematically illustrates the assay mechanism of action. […] In the absence of viable bacteria, however, no fluorescence emission is detected because the fluorophore is quenched by free oxygen. The assay can further be utilized to measure conjugative DNA transfer.
(§2) Relaxase-dependent cell survival was examined by placing cultures of F+/TraI+ E. coli cells (with antibiotic resistance, e.g., Ab^r1, on a non-conjugative plasmid) within wells and exposing them to putative inhibitory compounds. […] Negative controls for this assay can be F− (Ab^r2) cells and F+ cells (Ab^r1) containing either no F plasmid relaxase (TraI) gene, or a TraI harboring catalytic tyrosine to phenylalanine mutations; in both cases, these control cells should be resistant to relaxase-dependent cell toxicity. […] Fluorescence can be measured using a PHERASTAR™ fluorescence plate reader (BMG LABTECH, Offenburg, Germany) over 8 hours time.

F− recipient cells = test: microbe, parasite or virus in culture; format: cell-based, E. coli; details: for Selectivities by EC50, Donors: listed as vs. F− recipient cells relative to donors; for Selectivities by EC50, Transconj.: listed as vs. F− recipient cells relative to transconjugants; for 100 minute EC50 / EC50: vs. F− recipient cells; for EC50: read-out: 100 minute EC50
Excerpt: as §1, §2

F+ donor cells = test: microbe, parasite or virus in culture; format: cell-based, E. coli; details: for Selectivities by EC50, Transconj.: listed as vs. F+ donor cells relative to transconjugants; for 100 minute EC50 / EC50: vs. F+ donor cells; for EC50: read-out: 100 minute EC50
Excerpt: as §1, §2

F plasmid TraI N300 = target: T1, F plasmid TraI N300 (Escherichia coli, UniProt P14565); test: Fluorescence kinetic assay of oriT DNA cleavage and crossover by TraI N300; format: biochemical, E. coli; details: data not shown
T1 construct: An amino-terminal 300 residue F plasmid TraI construct; made in house; host or cells: E. coli BL21 (DE3)/pLysS or HMS174 (DE3)/pLysS, vector pTYB2
Procedure: Reaction Buffer: 6.42 mM MgCl2, 20.5% glycerol, 153.9 mM NaCl, and 51.3 mM Tris-HCl pH 7.5. Streptavidin Wash Buffer (Tris buffered saline, TBS/Tween): and 150 mM NaCl, 25 mM Tris-HCl pH 7.5, and 0.05% Tween-20. Stopping Buffer: 1.2% sodium-dodecyl sulfate (SDS), and 300 mM EDTA pH 10. TE Buffer: 1 mM EDTA, and 10 mM Tris-HCl pH 7.4. Fluorescence Buffer: 80% glycerol, 200 mM Tris-HCl pH 8.0. Short-term N300 stock (for storage at −20° C.): 50% Reaction Buffer, 49.8% glycerol, 0.2% long-term protein solution (84.6 nM final N300 concentration). All 5× stocks except Probe stocks were diluted in Reaction Buffer. 5× Enzyme Stock: 8.4 mL short-term N300 stock diluted to 2.02 nM N300. 5× Inhibitor Stocks: imidodiphosphate (pNp) at 0-50 nM in Reaction Buffer. 5× Substrate Stocks: oligonucleotides b29 and PCb31eco diluted to […] each, by 3-fold serial dilutions. 5× Probe Stocks: […] (1.2-fold molar excess) oligonucleotide downF in TE Buffer. All reactions and procedures involving downF were assembled or performed in darkened conditions. Solutions and microtiter plates containing downF were kept in foil-lined containers at all times to prevent photobleaching.
Two oriT derived oligonucleotides, b29 and PCb31eco, were designed for binding and cleavage by TraI based on past studies (see Oligonucleotides section herein; FIG. 4A). The overall method is modified from those described previously for the study of TraI and R388TrwC (Byrd et al., 2002; Grandoso et al., 2000; Matson and Morton, 1991). Reactions were assembled from 16 μL of 5× Substrate Stock, 16 μL of 5× Inhibitor Stock, and 32 μL of Reaction Buffer. 80 μL reactions were initiated with 16 μL of 5× Enzyme Stock and raised to 37° C. 10 μL samples were removed at eight time points (optimized to define timecourses) and stopped in 10 μL of Stopping Buffer at room temperature. Stopped reactions were placed on a 100° C. heat block for one minute, spiked with 2 μL of 5× Probe Stock while still hot, and incubated at 37° C. for 10 minutes (see Kinetic Assay Formulations for probe handling).
Samples were diluted to […] with Streptavidin Wash Buffer and transferred to Biobind Assembly streptavidin-coated microtiter plates (Thermo Electron Corporation, Waltham, Mass., U.S.A.) and incubated at 37° C. for 45 minutes. Plates were washed with at least 5-fold excess Streptavidin Wash Buffer (in an inverted position to prevent excess biotinylated species from transferring between wells). Wells were filled with 65 μL of Fluorescence Buffer for optimum 6-FAM™ fluorescence. Plates were read in a FLUOSTAR OPTIMA™ (BMG Labtech, Offenburg, Germany) with a 490 nm excitation and 520 nm emission filters (10 nm bandpass) with the gain optimized for maximum signal. The timecourses thus collected were designated Cleavage Courses. Plates were removed and irradiated with 306 nm ultraviolet radiation for 10 minutes to cleave the PC biotin linker. They were then washed inverted with at least 5-fold excess Streptavidin Wash Buffer, filled with 65 μL of Fluorescence Buffer, and again read as above. These timecourses were designated Cleavage+Crossover Courses (FIG. 4A).
All timecourses were fitted by nonlinear regression with un-weighted least-squares methods using SIGMAPLOT™ 8.0 (SYSTAT Software, Inc., Point Richmond, Calif., U.S.A.) (also used for graph construction). Timecourses with blanked signals in arbitrary fluorescence units were scaled by curve mean in groups of at least four replicates, culled for outliers, and averaged by time point. On average, one replicate time point was culled from each group of four used. The averaged curves were fitted to a simple, three-parameter exponential decay equation (Equation 1), time versus signal, and converted into units of concentration.
where t is time in seconds, y0+a is the initial signal, b is a constant that determines the shape of the curve. […]

[1] = clear wells after 24 hr. incubation
[2] = turbid wells after 24 hr. incubation
[3] = vs. transconjugants, first EC50 block, mass concentration
[4] = vs. transconjugants, first EC50 block, read-out: 100 minute EC50
[5] = vs. transconjugants, second block, mass concentration
[6] = vs. transconjugants, second block, read-out: 100 minute EC50
[7] = first EC50 block, mass concentration
[8] = second block, mass concentration
[9] = clear wells after 24 hr. incubation, read-out: 24 hr. MIC bounds, upper
[10] = turbid wells after 24 hr. incubation, read-out: 24 hr. MIC bounds, lower
[11] = Escherichia coli, 100 min, read-out: 100 minute EC50, vs. transconjugants, first EC50 block, mass concentration
[12] = Escherichia coli, 100 min, read-out: 100 minute EC50, vs. transconjugants, second block
[13] = Escherichia coli, 100 min, read-out: 100 minute EC50, vs. transconjugants, second block, mass concentration
[14] = Escherichia coli, 100 min, first EC50 block, mass concentration
[15] = Escherichia coli, 100 min, first EC50 block
[16] = Escherichia coli, 100 min, second block, mass concentration
[17] = Escherichia coli, 100 min, second block

T1 sequence (P14565 1-306): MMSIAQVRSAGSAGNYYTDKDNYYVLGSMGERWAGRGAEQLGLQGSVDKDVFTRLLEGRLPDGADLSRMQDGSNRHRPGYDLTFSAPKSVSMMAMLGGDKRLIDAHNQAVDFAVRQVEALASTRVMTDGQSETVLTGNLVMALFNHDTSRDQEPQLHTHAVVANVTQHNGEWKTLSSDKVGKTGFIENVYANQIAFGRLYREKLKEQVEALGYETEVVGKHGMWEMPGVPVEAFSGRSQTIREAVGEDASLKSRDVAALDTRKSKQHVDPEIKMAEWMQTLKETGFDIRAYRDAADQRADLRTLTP

Molecule | 24 hr. MIC bounds, upper (F+ or F− cells; [1]) [mM] | 24 hr. MIC bounds, lower (F+ or F− cells; [2]) [mM] | Selectivities by EC50, Donors (transconjugants; first EC50 block) | 100 minute EC50 (transconjugants; [3]) [mg/L] | EC50 (transconjugants; [4]) [µM] | 100 minute EC50 (transconjugants; [5]) [mg/L] | EC50 (transconjugants; [6]) [µM] | Selectivities by EC50, Donors (F− recipient cells; first EC50 block) | Selectivities by EC50, Transconj. (F− recipient cells; first EC50 block) | 100 minute EC50 (F− recipient cells; [7]) [mg/L] | EC50 (F− recipient cells; first EC50 block) [µM] | 100 minute EC50 (F− recipient cells; [8]) [mg/L] | EC50 (F− recipient cells; second block) [µM] | Selectivities by EC50, Transconj. (F+ donor cells; first EC50 block) | 100 minute EC50 (F+ donor cells; [7]) [mg/L] | EC50 (F+ donor cells; first EC50 block) [µM] | 100 minute EC50 (F+ donor cells; [8]) [mg/L] | EC50 (F+ donor cells; second block) [µM] | Selectivities by EC50, Donors (transconjugants; second block) | Selectivities by EC50, Transconj. (F+ donor cells; second block) | further results
COP(=O)(OC)c1ccccc1P(=O)(OC)OC [1,2-Bis(dimethoxyphosphoryl)benzene, 1,2-bis(dimethoxyphosphoryl)benzene] | 100 | 12.5 | 2.1E+02 | 4 | 14 ± 0.3 | >29000 | > 100000 | 3.3E+05 | 1.6E+03 | 7000 | 22000 | >29000 | > 100000 | 4.8E−03 | 0.02 | 0.068 | >29000 | > 100000 |  |  | 
O=P(O)(O)C(Cl)(Cl)P(=O)(O)O [Clodronate, reference compound] |  |  | 9.2E+00 |  |  |  |  | 3.6E+02 | 3.9E+01 |  |  |  |  | 1.1E−01 |  |  |  |  | 1.6E−01 | 6.1E+00 | MIC (F+ or F− cells; [9]): 100 mM (≈ 24500 µg/mL); MIC (F+ or F− cells; [10]): 12.5 mM (≈ 3060 µg/mL); EC50 (transconjugants; Escherichia coli, 100 min, read-out: 100 minute EC50, vs. transconjugants, first EC50 block): 38 µM; EC50 (transconjugants; [11]): 9 mg/L; EC50 (transconjugants; [12]): 5000 µM; EC50 (transconjugants; [13]): 1000 mg/L; EC50 (F− recipient cells; [14]): 365 mg/L; EC50 (F− recipient cells; [15]): 1000 µM; EC50 (F− recipient cells; [16]): > 24000 mg/L; EC50 (F− recipient cells; [17]): > 100000 µM; EC50 (F+ donor cells; [14]): 1 mg/L; EC50 (F+ donor cells; [16]): 7000 mg/L; EC50 (F+ donor cells; [17]): 30000 µM
CC(O)(P(=O)(O)O)P(=O)(O)O [Etidronate, reference compound] |  |  | 7.3E−01 |  |  |  |  | 4.3E+04 | 5.9E+04 |  |  |  |  | 1.4E+00 |  |  |  |  | 5.1E−02 | 2.0E+01 | MIC (F+ or F− cells; [9]): 12.5 mM (≈ 2580 µg/mL); MIC (F+ or F− cells; [10]): 1.56 mM (≈ 321 µg/mL); EC50 (transconjugants; [11]): 0.001 mg/L; EC50 (transconjugants; [12]): 1000 µM; EC50 (transconjugants; [13]): 210 mg/L; EC50 (F− recipient cells; [14]): 67 mg/L; EC50 (F− recipient cells; [15]): 327 µM; EC50 (F− recipient cells; [16]): 9000 mg/L; EC50 (F− recipient cells; [17]): 42000 µM; Selectivities by EC50, Donors (F− recipient cells; second block): 2.1E+00; Selectivities by EC50, Transconj. (F− recipient cells; second block): 4.1E+01; EC50 (F+ donor cells; [14]): 0.002 mg/L; EC50 (F+ donor cells; [15]): 0.008 ± 0.0002 µM; EC50 (F+ donor cells; [16]): 4000 mg/L; EC50 (F+ donor cells; [17]): 20000 µM
O=P(O)(O)CNCP(=O)(O)O [Iminobis(methylphosphonate)] | 10 | 1.25 | 1.2E+02 | 0.253 | 1 | 2000 | 8000 ± 500 | 4.8E+05 | 4.0E+03 | 1000 | 5000 ± 3300 | >2000 | > 10000 | 8.4E−03 | 0.002 | 0.01 | >2000 | > 10000 |  |  | 
O=P(O)(O)OP(=O)(O)O [Pyrophosphate, reference compound] |  |  |  |  |  |  |  |  |  |  |  |  |  |  |  |  |  |  |  |  | effect on enzyme activity (F plasmid TraI N300): no effect
Methylenediphosphonate | 12.5 | 1.56 | 1.1E−02 | 0.017 | 0.096 ± 0.0123 | 205 | 1000 | 7.8E+01 | 6.9E+03 | 117 | 667 ± 0.1 | 7000 | 41000 | 8.8E+01 | 1 | 8 | 4000 | 21000 | 5.5E−02 | 1.8E+01 | Selectivities by EC50, Donors (F− recipient cells; second block): 1.9E+00; Selectivities by EC50, Transconj. (F− recipient cells; second block): 3.5E+01

Source: patent US20090221530A1, “Relaxase Modulators and Methods of Using Same” (priority 2005, published 2009)
